US8530493B2, “Indolopyridines as Eg5 kinesin modulators” (4SC AG, priority 2006, dated 2013)

Key:
[1] = system: RKO p27 induced (arrested) colon adenocarcinoma cells; assay: Alamar Blue cell viability assay, RKO p27 induced by Ponasterone A (arrested); assay type: cell-based; settings: Homo sapiens, RKOp27, Table B1, cells arrested by Ponasterone A-induced p27Kip1, 72 hours, read-out: −log EC50 RKO p27 induced (arrested) (converted)
Description: (§1) To determine the cell cycle specific mode of action, subclones of RKO colon adenocarcinoma cells (RKOp21 or RKOp27 as described by Schmidt et al. in Oncogene 19, 2423-2429; 2000) are seeded into 96 well flat bottom plates at a density of 16000 cells per well in a volume of 50 μl per well in DMEM growth medium with 10% FCS containing 10 μM Ponasterone A. 24 hours after seeding the 50 μl each of the compound dilutions in DMEM medium are added into each well of the 96-well plate. Each compound dilution is tested as triplicates. Wells containing untreated control cells are filled with 50 μl DMEM medium containing 1% DMSO. The cells are then incubated with the substances for 72 hours at 37° C. in a humidified atmosphere containing 5% carbon dioxide. To determine the viability of the cells, 10 μl of an Alamar Blue solution (Biosource) are added and the fluorescence is measured at an extinction of 544 nm and an emission of 590 nm. For the calculation of the cell viability the emission value from untreated cells is set as 100% viability and the emission rates of treated cells are set in relation to the values of untreated cells. Viabilities are expressed as % values. The Graphpad Prism program (GraphPad Software, Inc) is used for the calculation of EC50 values out of the obtained dose-response curves. Viability is compared of proliferating cells grown in the absence of the inducer Ponasterone A, versus viability of cells arrested by the expression of ectopic p27Kip1 induced by Ponasterone A.
(§2) Representative values for anti-proliferation/cytotoxicity [measured as −log EC50 (mol/l)] determined in the aforementioned assays follow from the following tables B1, B2 and B3, in which the numbers of the compounds correspond to the numbers of the examples.

[2] = system: RKO p27 uninduced (proliferating) colon adenocarcinoma cells; assay: Alamar Blue cell viability assay, RKO p27 uninduced (proliferating); assay type: cell-based; settings: Homo sapiens, RKOp27, Table B1, anti-proliferative/cytotoxic activity, 72 hours, read-out: −log EC50 RKO p27 uninduced (proliferating) (converted)
Description: The anti-proliferative/cytotoxic activity of the compounds described herein can be tested on subclones of RKO human colon adenocarcinoma cells (Schmidt et al., Oncogene 19, 2423-2429; 2000) using the Alamar Blue cell viability assay (described in O'Brien et al. Eur J Biochem 267, 5421-5426, 2000). The compounds are dissolved as 10 mM solutions in DMSO and subsequently diluted in semi-logarithmic steps. DMSO dilutions are further diluted 1:100 into Dulbecco's modified Eagle's medium (DMEM) containing 10% fetal calf serum to a final concentration twice as much as the final concentration in the test. RKO subclones are seeded into 96 well flat bottom plates at a density of 4000 cells per well in a volume of 50 μl per well. 24 hours after seeding the 50 μl each of the compound dilutions in DMEM medium are added into each well of the 96 well plate. Each compound dilution is tested as triplicates. Wells containing untreated control cells are filled with 50 μl DMEM medium containing 1% DMSO. The cells are then incubated with the substances for 72 hours at 37° C. in a humidified atmosphere containing 5% carbon dioxide. To determine the viability of the cells, 10 μl of an Alamar Blue solution (Biosource) are added and the fluorescence is measured at an extinction of 544 nm and an emission of 590 nm. For the calculation of the cell viability the emission value from untreated cells is set as 100% viability and the emission rates of treated cells are set in relation to the values of untreated cells. Viabilities are expressed as % values. The Graphpad Prism program is used for the calculation of EC50 values for anti-proliferative/cytotoxic activity out of the obtained dose-response curves.
as §1, §2

[3] = system: RKO p27 or p21 uninduced (proliferating) colon adenocarcinoma cells; assay: Alamar Blue cell viability assay, RKO p27 or p21 uninduced (proliferating); assay type: cell-based; settings: Homo sapiens, RKOp27, Table B2, anti-proliferative/cytotoxic activity, 72 hours, read-out: −log EC50 RKO p27 or p21 uninduced (proliferating) (converted)
How it was run: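 Viability read by Alamar Blue fluorescence (ex 544, em 590 nm), normalised to untreated wells, after 72 h, 37° C, 5% CO2 compound exposure in triplicate. Cells were uninduced (no Ponasterone A), proliferating RKO colon carcinoma p27 or p21 subclones in DMEM with 10% FCS; values are −log EC50 (mol/l).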

[4] = system: RKO p27 or p21 induced (arrested) colon adenocarcinoma cells; assay: Alamar Blue cell viability assay, RKO p27 or p21 induced (arrested); assay type: cell-based; settings: Homo sapiens, RKOp27, Table B2, cells arrested by Ponasterone A, 72 hours, read-out: −log EC50 RKO p27 or p21 induced (arrested) (converted)
How it was run: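 RKOp21 or RKOp27 subclones in DMEM/10% FCS with 10 μM Ponasterone A to induce p21/p27 arrest, seeded 24 h before compound; triplicate 72 h exposure at 37 °C. Alamar Blue fluorescence (544/590 nm) as % of untreated (1% DMSO) cells; EC50 from dose-response curves, reported as −log EC50 (mol/l).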

CN(C)CCN1C(=O)N2[C@H](c3cccc(O)c3)c3[nH]c4ccc(Br)cc4c3C[C@@]2(C)C1=O (racemic) [Example 8, (3aSR,10RS)-6-Bromo-2-(2-dimethylamino-ethyl)-10-(3-hydroxy-phenyl)-3a-methyl-3a,4,9,10-tetrahydro-2,9,10a-triaza-cyclopenta[b]fluorene-1,3-dione]
EC50 [1]: ≥ 3160 nM | EC50 [2]: ≤ 39.8 nM | melting point: 286 to 288 °C

COc1ccc2[nH]c3c(c2c1)C[C@@]1(C)C(=O)N(CCN2CCOCC2)C(=O)N1[C@@H]3c1cccc(O)c1 (racemic) [Example 10, (3aSR,10RS)-10-(3-Hydroxy-phenyl)-6-methoxy-3a-methyl-2-(2-morpholin-4-yl-ethyl)-3a,4,9,10-tetrahydro-2,9,10a-triaza-cyclopenta[b]fluorene-1,3-dione]
EC50 [1]: ≥ 3160 nM | EC50 [2]: ≤ 39.8 nM | melting point: 260 to 263 °C

COc1ccc2[nH]c3c(c2c1)C[C@@]1(C)C(=O)N(CCn2ccnc2)C(=O)N1[C@@H]3c1cccc(O)c1 (racemic) [Example 13, (3aSR,10RS)-10-(3-Hydroxy-phenyl)-2-(2-imidazol-1-yl-ethyl)-6-methoxy-3a-methyl-3a,4,9,10-tetrahydro-2,9,10a-triaza-cyclopenta[b]fluorene-1,3-dione]
EC50 [1]: ≥ 3160 nM | EC50 [2]: 39.8 to 251 nM | melting point: 321 to 324 °C

COc1ccc2[nH]c3c(c2c1)C[C@@]1(C)C(=O)N(CCBr)C(=O)N1[C@@H]3c1cccc(O)c1 (racemic) [Example 24, (3aSR,10RS)-2-(2-Bromo-ethyl)-10-(3-hydroxy-phenyl)-6-methoxy-3a-methyl-3a,4,9,10-tetrahydro-2,9,10a-triaza-cyclopenta[b]fluorene-1,3-dione]
EC50 [1]: ≥ 3160 nM | EC50 [2]: 39.8 to 251 nM | melting point: 299 to 302 °C

COc1ccc2[nH]c3c(c2c1)C[C@@]1(C)C(=O)N(CCCN(C)C)C(=O)N1[C@@H]3c1cccc(O)c1 (racemic) [Example 15, (3aSR,10RS)-2-(3-Dimethylamino-propyl)-10-(3-hydroxy-phenyl)-6-methoxy-3a-methyl-3a,4,9,10-tetrahydro-2,9,10a-triaza-cyclopenta[b]fluorene-1,3-dione]
EC50 [1]: ≥ 3160 nM | EC50 [2]: ≤ 39.8 nM | melting point: 228 to 231 °C

CCOc1ccc2[nH]c3c(c2c1)C[C@@]1(C)C(=O)N(CCBr)C(=O)N1[C@@H]3c1cccc(O)c1 (racemic) [Example 22, (3aSR,10RS)-2-(2-Bromo-ethyl)-6-ethoxy-10-(3-hydroxy-phenyl)-3a-methyl-3a,4,9,10-tetrahydro-2,9,10a-triaza-cyclopenta[b]fluorene-1,3-dione]
EC50 [3]: ≤ 39.8 nM | EC50 [4]: ≥ 316 nM | EC50 [1]: ≥ 3160 nM | EC50 [2]: 39.8 to 251 nM | melting point: 250 to 252 °C

CN(C)CCN1C(=O)N2[C@H](c3cccc(O)c3)c3[nH]c4ccc(Cl)cc4c3C[C@@]2(C)C1=O (racemic) [Example 9, (3aSR,10RS)-6-Chloro-2-(2-dimethylamino-ethyl)-10-(3-hydroxy-phenyl)-3a-methyl-3a,4,9,10-tetrahydro-2,9,10a-triaza-cyclopenta[b]fluorene-1,3-dione]
EC50 [1]: ≥ 3160 nM | EC50 [2]: ≤ 39.8 nM | melting point: 283 to 286 °C

COc1ccc2[nH]c3c(c2c1)C[C@@]1(C)C(=O)N(CCN2CCCC2)C(=O)N1[C@@H]3c1cccc(O)c1 (racemic) [Example 11, (3aSR,10RS)-10-(3-Hydroxy-phenyl)-6-methoxy-3a-methyl-2-(2-pyrrolidin-1-yl-ethyl)-3a,4,9,10-tetrahydro-2,9,10a-triaza-cyclopenta[b]fluorene-1,3-dione]
EC50 [1]: ≥ 3160 nM | EC50 [2]: ≤ 39.8 nM | melting point: 252 to 255 °C

C[C@@]12Cc3c([nH]c4ccc(Cl)cc34)[C@@H](c3cccc(O)c3)N1C(=O)N(CCBr)C2=O (racemic)
melting point: 262 to 264 °C

COc1ccc2[nH]c3c(c2c1)C[C@@]1(C)C(=O)N(CCN2CCN(C)CC2)C(=O)N1[C@@H]3c1cccc(O)c1 (racemic) [Example 12, (3aSR,10RS)-10-(3-Hydroxy-phenyl)-6-methoxy-3a-methyl-2-[2-(4-methyl-piperazin-1-yl)ethyl]-3a,4,9,10-tetrahydro-2,9,10a-triaza-cyclopenta[b]fluorene-1,3-dione]
EC50 [1]: ≥ 3160 nM | EC50 [2]: 39.8 to 251 nM | melting point: 224 to 227 °C

CC[C@@]12Cc3c([nH]c4ccc(OC)cc34)[C@@H](c3cccc(O)c3)N1C(=O)N(CCN(C)C)C2=O (racemic) [Example 18, (3aSR,10RS)-2-(2-Dimethylamino-ethyl)-3a-ethyl-10-(3-hydroxy-phenyl)-6-methoxy-3a,4,9,10-tetrahydro-2,9,10a-triaza-cyclopenta[b]fluorene-1,3-dione]
EC50 [1]: ≥ 3160 nM | EC50 [2]: ≤ 39.8 nM

CCN(C)CCN1C(=O)N2[C@H](c3cccc(O)c3)c3[nH]c4ccc(OC)cc4c3C[C@@]2(C)C1=O (racemic) [Example 52, (3aSR,10RS)-2-[2-(Ethyl-methyl-amino)-ethyl]-10-(3-hydroxy-phenyl)-6-methoxy-3a-methyl-3a,4,9,10-tetrahydro-2,9,10a-triaza-cyclopenta[b]fluorene-1,3-dione]
EC50 [1]: ≥ 3160 nM | EC50 [2]: ≤ 39.8 nM

COc1ccc2[nH]c3c(c2c1)C[C@@]1(C)C(=O)N(CCCn2ccnc2)C(=O)N1[C@@H]3c1cccc(O)c1 (racemic) [Example 20, (3aSR,10RS)-10-(3-Hydroxy-phenyl)-2-(3-imidazol-1-yl-propyl)-6-methoxy-3a-methyl-3a,4,9,10-tetrahydro-2,9,10a-triaza-cyclopenta[b]fluorene-1,3-dione]
EC50 [1]: ≥ 3160 nM | EC50 [2]: ≤ 39.8 nM

COc1ccc2[nH]c3c(c2c1)C[C@@]1(C)C(=O)N(CCNC2CC2)C(=O)N1[C@@H]3c1cccc(O)c1 (racemic) [Example 53, (3aSR,10RS)-2-(2-Cyclopropylamino-ethyl)-10-(3-hydroxy-phenyl)-6-methoxy-3a-methyl-3a,4,9,10-tetrahydro-2,9,10a-triaza-cyclopenta[b]fluorene-1,3-dione]
EC50 [1]: ≥ 3160 nM | EC50 [2]: ≤ 39.8 nM
